Values of other authors as cited in patent US20140199405A1, “METHOD FOR TREATING CANCER BASED ON MUTATION STATUS OF K-RAS” (priority 2013, published 2014).

Experiments:
[1] = tested on: locally advanced pancreatic cancer; conditions: patients with locally advanced pancreatic cancer
pancreatic cancer = conditions: combination versus gemcitabine monotherapy

O=c1[nH]cc(F)c(=O)[nH]1 [5-FU, 5-fluororuracil]
median overall survival [1]: 4.2 months
median time to disease progression [1]: 0.9 months

Nc1ccn([C@@H]2O[C@H](CO)[C@@H](O)C2(F)F)c(=O)n1 [gemcitabine]
median overall survival [1]: 5.7 months
median time to disease progression [1]: 2.1 months
median overall survival (pancreatic cancer): 6.0 months
median progression free survival (pancreatic cancer): 3.5 months
